In ChEMBL document CHEMBL1201862, “PubChem BioAssay data set” (2004):
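Protocol summary: plate cells (96-well), add compound at 5 concentrations, incubate 48 h, interpolate endpoints linearly. GI50 marks 50% less growth.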 Calls of active or inactive are those of the source. Cut-off read from the data, not from the text of the source: active = GI50 up to about 1.1 µM and inactive = higher.

Experiments:
Test in all cases: NCI tumour cell line growth inhibition, 48 h
[1] = test system: NCI-H23
[2] = test system: SK-OV-3
[3] = test system: SR
[4] = test system: RPMI-8226
[5] = test system: SK-MEL-28
[6] = test system: SNB-75
[7] = test system: CCRF-CEM
[8] = test system: SK-MEL-5
[9] = test system: SN12C
[10] = test system: NCI-H226
[11] = test system: OVCAR-8
[12] = test system: CAKI-1
[13] = test system: DMS-114
[14] = test system: ACHN
[15] = test system: U-251
[16] = test system: M14
[17] = test system: HL-60
[18] = test system: NCI-H460
[19] = test system: SNB-78
[20] = test system: IGROV-1
[21] = test system: UACC-62
[22] = test system: SF-539
[23] = test system: KM-20L2
[24] = test system: UACC-257
[25] = test system: OVCAR-5
[26] = test system: HOP-62
[27] = test system: LXFL 529
[28] = test system: HCC 2998
[29] = test system: A498
[30] = test system: HCT-15
[31] = test system: XF498
[32] = test system: Malme-3M
[33] = test system: M19-MEL
[34] = test system: SNB-19
[35] = test system: KM12
[36] = test system: SF-295
[37] = test system: 786-0
[38] = test system: DMS-273
[39] = test system: SW-620
[40] = test system: UO-31
[41] = test system: LOX IMVI
[42] = test system: NCI-H522
[43] = test system: HOP-92
[44] = test system: MOLT-4
[45] = test system: DLD-1
[46] = test system: COLO 205
[47] = test system: OVCAR-3
[48] = test system: RXF 393
[49] = test system: HCT-116
[50] = test system: HT-29
[51] = test system: OVCAR-4
[52] = test system: HOP-18
[53] = test system: SK-MEL-2
[54] = test system: SF-268
[55] = test system: EKVX
[56] = test system: A549
[57] = test system: K562
[58] = test system: NCI/ADR-RES
[59] = test system: MCF7

Which GI50 [1] does the source give for `Cn1c2c(cc(-c3ccccc3)c1=O)COc1ccccc1-2` here?
Its GI50 is 26.9 µM (inactive).

What about the GI50 [2] of the same molecule?
Its GI50 is 37.8 µM (inactive).

And the GI50 [3]?
Its GI50 is 39.1 µM (inactive).

What about the GI50 [4] of the same molecule?
Its GI50 is 20.2 µM (inactive).

What about the GI50 [5] of the same molecule?
The GI50 was 24.1 µM (inactive).

And the GI50 [6]?
Its GI50 is 23.4 µM (inactive).

And the GI50 [7]?
The GI50 was 30.5 µM (inactive).

And the GI50 [8]?
The GI50 was 17.5 µM (inactive).

What about the GI50 [9] of the same molecule?
Its GI50 is 35 µM (inactive).

What about the GI50 [10] of the same molecule?
Its GI50 is 32.5 µM (inactive).

What about the GI50 [11] of the same molecule?
The GI50 was 34 µM (inactive).

And the GI50 [12]?
Its GI50 is 37.5 µM (inactive).

And the GI50 [13]?
Its GI50 is 15.4 µM (inactive).

And the GI50 [14]?
Its GI50 is 24 µM (inactive).

And the GI50 [15]?
The GI50 was 41.6 µM (inactive).

What about the GI50 [16] of the same molecule?
The GI50 was 31.6 µM (inactive).

And the GI50 [17]?
Its GI50 is 29.8 µM (inactive).

What about the GI50 [18] of the same molecule?
The GI50 was 20.3 µM (inactive).

What about the GI50 [19] of the same molecule?
The GI50 was 33.7 µM (inactive).

What about the GI50 [20] of the same molecule?
The GI50 was 35.5 µM (inactive).

And the GI50 [21]?
The GI50 was 14.7 µM (inactive).

And the GI50 [22]?
Its GI50 is 49.1 µM (inactive).

What about the GI50 [23] of the same molecule?
Its GI50 is 25.1 µM (inactive).

And the GI50 [24]?
The GI50 was 36.9 µM (inactive).

And the GI50 [25]?
The GI50 was 14.5 µM (inactive).

What about the GI50 [26] of the same molecule?
Its GI50 is 42.3 µM (inactive).

What about the GI50 [27] of the same molecule?
Its GI50 is 31.4 µM (inactive).

And the GI50 [28]?
Its GI50 is 24.8 µM (inactive).

What about the GI50 [29] of the same molecule?
The GI50 was 40.6 µM (inactive).

What about the GI50 [30] of the same molecule?
The GI50 was 32.1 µM.

What about the GI50 [31] of the same molecule?
Its GI50 is 8.04 µM (inactive).

And the GI50 [32]?
The GI50 was 20.3 µM (inactive).

And the GI50 [33]?
The GI50 was 25.6 µM (inactive).

And the GI50 [34]?
The GI50 was 40.9 µM (inactive).

What about the GI50 [35] of the same molecule?
Its GI50 is 13 µM (inactive).

What about the GI50 [36] of the same molecule?
Its GI50 is 25.8 µM (inactive).

What about the GI50 [37] of the same molecule?
Its GI50 is 39.3 µM (inactive).

And the GI50 [38]?
The GI50 was 19.5 µM (inactive).

And the GI50 [39]?
Its GI50 is 45.9 µM (inactive).

And the GI50 [40]?
The GI50 was 27.5 µM (inactive).

And the GI50 [41]?
Its GI50 is 15.2 µM (inactive).

What about the GI50 [42] of the same molecule?
Its GI50 is 17.9 µM (inactive).

And the GI50 [43]?
Its GI50 is 28.8 µM (inactive).

What about the GI50 [44] of the same molecule?
Its GI50 is 23.1 µM (inactive).

And the GI50 [45]?
Its GI50 is 36.6 µM (inactive).

And the GI50 [46]?
The GI50 was 29 µM (inactive).

And the GI50 [47]?
The GI50 was 26.4 µM (inactive).

And the GI50 [48]?
Its GI50 is 36.1 µM (inactive).

And the GI50 [49]?
The GI50 was 16.9 µM (inactive).

And the GI50 [50]?
Its GI50 is 19.9 µM (inactive).

And the GI50 [51]?
Its GI50 is 37.8 µM (inactive).

And the GI50 [52]?
Its GI50 is > 100 µM (inactive).

What about the GI50 [53] of the same molecule?
Its GI50 is 14 µM (inactive).

And the GI50 [54]?
Its GI50 is 28.6 µM (inactive).

And the GI50 [55]?
Its GI50 is 9.04 µM (inactive).

What about the GI50 [56] of the same molecule?
The GI50 was 33.3 µM (inactive).

What about the GI50 [57] of the same molecule?
Its GI50 is 23.9 µM (inactive).

Which results are given for `Cn1c(-c2ccccc2)cc(-c2cccs2)c1-c1cccs1`?
GI50 [1]: 49.3 µM (inactive); GI50 [2]: > 100 µM (inactive); GI50 [4]: 73.3 µM (inactive); GI50 [5]: > 100 µM (inactive); GI50 [6]: > 100 µM (inactive); GI50 [7]: 18.2 µM (inactive); GI50 [8]: 45.3 µM (inactive); GI50 [9]: > 100 µM (inactive); GI50 [10]: > 100 µM (inactive); GI50 [11]: > 100 µM (inactive); GI50 [12]: > 100 µM (inactive); GI50 [13]: > 52 µM (inactive); GI50 [15]: > 100 µM (inactive); GI50 [17]: 54.8 µM (inactive); GI50 [18]: 71.9 µM (inactive); GI50 [19]: > 100 µM (inactive); GI50 [58]: > 100 µM (inactive); GI50 [20]: > 100 µM (inactive); GI50 [59]: 24 µM (inactive); GI50 [21]: > 100 µM (inactive); GI50 [22]: > 100 µM (inactive); GI50 [23]: 47.2 µM (inactive); GI50 [24]: > 35.4 µM (inactive); GI50 [25]: > 100 µM (inactive); GI50 [26]: > 81.3 µM (inactive); GI50 [28]: 49.5 µM (inactive); GI50 [29]: > 100 µM (inactive); GI50 [30]: 46.2 µM; GI50 [31]: > 100 µM (inactive); GI50 [32]: > 100 µM (inactive); GI50 [33]: 83.2 µM (inactive); GI50 [34]: > 100 µM (inactive); GI50 [35]: 22.3 µM (inactive); GI50 [36]: > 100 µM (inactive); GI50 [38]: > 100 µM (inactive); GI50 [39]: > 100 µM (inactive); GI50 [40]: > 100 µM (inactive); GI50 [41]: 52 µM (inactive); GI50 [42]: > 64.6 µM (inactive); GI50 [43]: > 29.2 µM (inactive); GI50 [44]: 48.9 µM (inactive); GI50 [45]: > 100 µM (inactive); GI50 [46]: 82.6 µM (inactive); GI50 [47]: > 100 µM (inactive); GI50 [48]: > 81.3 µM (inactive); GI50 [49]: > 100 µM (inactive); GI50 [50]: 51.2 µM (inactive); GI50 [51]: > 96.4 µM (inactive); GI50 [52]: > 100 µM (inactive); GI50 [53]: > 100 µM (inactive); GI50 [54]: > 100 µM (inactive); GI50 [55]: 34.2 µM (inactive); GI50 [56]: > 100 µM (inactive); GI50 [57]: 51.6 µM (inactive)
